Results taken from ChEMBL document CHEMBL1157539, “Thousands of chemical starting points for antimalarial lead identification” (Nature, 2010).

Each molecule was assayed on Plasmodium falciparum (assay: GSK_TCMDC: Inhibition of Plasmodium falciparum 3D7 in whole erythrocytes, using parasite LDH activity as an index of growth.). Details: Plasmodium falciparum, 3D7.
Assay type: functional, organism-based

Question: For `C(=N\Nc1nccc2sc(-c3cccnc3)cc12)/c1cccnc1`, which XC50 is on record?
Answer: Its XC50 is 423 nM.

Question: For `CC[C@H]1CN2CC[C@H]1C[C@H]2[C@H](O)c1cc(-c2ccc(OC(F)(F)F)cc2)nc2ccc(OC)cc12`, which XC50 is on record?
Answer: Its XC50 is 51.1 nM.

Question: Which XC50 does the source give for `CC1N=C(N)N=C(N)N1OCc1ccccc1` (stereo unspecified) here?
Answer: Its XC50 is 32.9 nM.

Question: For `CCOC(=O)c1cn(CC)c2cc(N3CCCCC3)c(F)cc2c1=O`, which XC50 is on record?
Answer: The XC50 was 125 nM.

Question: How did the XC50 turn out when `COc1cccc(NC(=O)Cn2c(C)c(C#N)c3ccccc32)c1` was run?
Answer: Its XC50 is 878 nM.

Question: Which XC50 does the source give for `Cc1ccc(C(C#N)c2ccc3c(C(F)(F)F)cc(C(F)(F)F)nc3n2)cc1` (stereo unspecified) here?
Answer: The XC50 was 700 nM.

Question: Which XC50 does the source give for `COc1cc(Cc2cnc(N)nc2N)cc(OCCCCC2NC(=O)NC2=O)c1OC` (stereo unspecified) here?
Answer: Its XC50 is 714 nM.

Question: Which XC50 does the source give for `CC(C)(C)c1ccc(CNC(=O)c2ccc(-c3nc4ccc(Cl)cc4[nH]3)cc2)cc1` here?
Answer: Its XC50 is 819 nM.

Question: Which XC50 does the source give for `CCCCCCCC1CCN(C[C@H](O)c2ccnc3ccc(OC)cc23)CC1` here?
Answer: Its XC50 is 956 nM.

Question: For `CN1CCCc2ccc(NC(=O)c3cnc(-c4ccccc4)cn3)cc21`, which XC50 is on record?
Answer: Its XC50 is 905 nM.

Question: With `COc1ccccc1CNC(=O)c1nn(-c2ccc(Cl)cc2)c(=O)c2ccccc12` as the molecule, how does the XC50 read?
Answer: The XC50 was 294 nM.

Question: With `Nc1cc(-c2ccc3ccccc3c2)nc2ccccc12` as the molecule, how does the XC50 read?
Answer: Its XC50 is 699 nM.

Question: Which XC50 does the source give for `O=C(Nc1ccccc1C(F)(F)F)Nc1nn(Cc2c(F)cccc2Cl)cc1Br` here?
Answer: Its XC50 is 337 nM.

Question: With `C#C[C@H]1O[C@@H](n2cnc3c(Nc4cc(Br)cc(C(F)(F)F)c4)ncnc32)[C@H](O)[C@@H]1O` as the molecule, how does the XC50 read?
Answer: Its XC50 is 1030 nM.

Question: With `OC1(c2ccc(Br)cc2)CCN(C2CCN(Cc3ccccc3)CC2)CC1` as the molecule, how does the XC50 read?
Answer: The XC50 was 597 nM.

Question: With `Cc1ccc(N)cc1-c1nc(NC2CC(C)(C)NC(C)(C)C2)nc2c1ccc(=O)n2-c1c(F)cccc1F` as the molecule, how does the XC50 read?
Answer: Its XC50 is 842 nM.

Question: How did the XC50 turn out when `O=C(CCCCCNC(=O)c1ccc(O)c(-c2ccc(Cl)c(Cl)c2)c1)NCCN1CCOCC1` was run?
Answer: Its XC50 is 830 nM.

Question: `O=C(Nc1cccc(CN2CCN(Cc3ccc(O)cc3)CC2)c1)c1cc2ccccc2o1` was tested. Which XC50 did it give?
Answer: Its XC50 is 1180 nM.

Question: With `Cc1cc(Cl)c(S(=O)(=O)NC(C)(C)C)cc1OCC(=O)NC1CCCCC1` as the molecule, how does the XC50 read?
Answer: The XC50 was 548 nM.

Question: For `O=S(=O)(NCCN1CCCC1)c1ccc(-c2cccc(CNC3Cc4ccccc4C3)c2)s1`, which XC50 is on record?
Answer: Its XC50 is 746 nM.

Question: Which XC50 does the source give for `CC(C)NCc1ccc(-c2cccc(NC(=O)c3cccc(C#N)c3)c2)cc1` here?
Answer: The XC50 was 406 nM.

Question: Which XC50 does the source give for `Cc1cccc2nc(-c3ccc(-c4ccc(CNC(C)C)cc4)cc3)[nH]c12` here?
Answer: Its XC50 is 676 nM.

Question: Which XC50 does the source give for `O=C(NC1CCC(CCN2Cc3cccc(F)c3C2)CC1)c1cccc(-c2cccnc2)c1` (stereo unspecified) here?
Answer: The XC50 was 300 nM.

Question: For `Fc1ccc2[nH]c(-c3cccc(-c4cccc(CNCC5CCCO5)c4)c3)nc2c1` (stereo unspecified), which XC50 is on record?
Answer: Its XC50 is 513 nM.

Question: How did the XC50 turn out when `Cc1cc(N[C@@H](CC(C)C)C(=O)Nc2ccccc2)nc(Nc2ccccc2)n1` was run?
Answer: Its XC50 is 728 nM.

Question: How did the XC50 turn out when `COc1ccc(CCNCCCCCCNCCc2cccc([N+](=O)[O-])c2)cc1OC` was run?
Answer: Its XC50 is 997 nM.

Question: For `O=C(N[C@H]1CCN(Cc2ccc(OCCCN3CCCCC3)cc2)C1)c1ccc(Cl)c(Cl)c1`, which XC50 is on record?
Answer: Its XC50 is 781 nM.

Question: With `Cc1cc(C)cc(Oc2c(C(F)(F)F)oc3c(CN4CC(C)OC(C)C4)c(O)ccc3c2=O)c1` (stereo unspecified) as the molecule, how does the XC50 read?
Answer: Its XC50 is 939 nM.

Question: For `Cc1noc(C)c1-c1ccc2c(Nc3cccc4c3-c3ccccc3C4=O)c(C(=O)NCc3ccccc3I)cnc2c1`, which XC50 is on record?
Answer: The XC50 was 627 nM.

Question: `O=C(Nc1cccc(-c2ccc(-c3nc4cc(F)ccc4[nH]3)cc2)c1)c1cccnc1` was tested. Which XC50 did it give?
Answer: The XC50 was 612 nM.

Question: `COc1ccc2c(NCCc3ccccc3)cc(-c3ccccc3)nc2c1` was tested. Which XC50 did it give?
Answer: Its XC50 is 987 nM.

Question: For `CC(C)n1ncc2c(C(=O)N3CCCc4ccccc43)cc(-c3ccccc3)nc21`, which XC50 is on record?
Answer: The XC50 was 601 nM.

Question: With `Cc1cc(N2CCCCC2)nc2ccc(NC(=O)c3cc(=O)c4ccccc4o3)cc12` as the molecule, how does the XC50 read?
Answer: The XC50 was 716 nM.

Question: Which XC50 does the source give for `CC1(C)N=C(N)N=C(N)N1OCCc1ccc2ccccc2c1` here?
Answer: The XC50 was 3.2 nM.

Question: With `Cc1c(C)c2c(c(C)c1O)CCC(C)(CCC(=O)O)O2` (stereo unspecified) as the molecule, how does the XC50 read?
Answer: Its XC50 is 691 nM.

Question: Which XC50 does the source give for `O=C(Cn1c(CCc2cccc(F)c2F)nc(=O)c2ccccc21)N(CCCN1CCCC1)Cc1ccc(-c2ccc(C(F)(F)F)cc2)cc1` here?
Answer: The XC50 was 941 nM.

Question: How did the XC50 turn out when `CN1CCC(NCc2cccc(-c3ccc(S(=O)(=O)NCc4ccccc4)cc3)c2)CC1` was run?
Answer: Its XC50 is 687 nM.

Question: How did the XC50 turn out when `CCN(CC)CCN(Cc1ccc(-c2ccc(C(F)(F)F)cc2)cc1)C(=O)Cn1c(CCc2ccc(F)c(F)c2F)nc(=O)c2ccc(F)cc21` was run?
Answer: The XC50 was 736 nM.

Question: `CN1CCN(CC(=O)Nc2cccc(-c3cccc(-c4nc5cc(C(F)(F)F)ccc5[nH]4)c3)c2)CC1` was tested. Which XC50 did it give?
Answer: Its XC50 is 372 nM.

Question: Which XC50 does the source give for `COc1cccc(Cn2ccc3c4c(N)nc(N)nc4ccc32)c1` here?
Answer: Its XC50 is 3.2 nM.

Question: Which XC50 does the source give for `O=c1cc(NCCCNCc2cc(Cl)c(Cl)cc2Cl)[nH]c2ccccc12` here?
Answer: The XC50 was 966 nM.

Question: `COc1ccc2ncc(F)c(CCN3CCC(NCc4cc5c(cn4)OCCS5)CC3)c2c1` was tested. Which XC50 did it give?
Answer: Its XC50 is 776 nM.

Question: Which XC50 does the source give for `COc1ccccc1N1CCN(C(C(=O)NCc2cccc(F)c2)c2ccc(C)cc2)CC1` (stereo unspecified) here?
Answer: Its XC50 is 892 nM.

Question: `Cc1ccccc1C1CCN(C2CCC(NC(=O)/C=C/c3ccc(C(F)(F)F)cc3)CC2)CC1` (stereo unspecified) was tested. Which XC50 did it give?
Answer: Its XC50 is 1040 nM.

Question: How did the XC50 turn out when `CCOC(=O)c1c(CN2CCCC2)n(-c2ccccc2)c2cc(Br)c(O)cc12` was run?
Answer: Its XC50 is 1010 nM.

Question: With `COc1ccc(-c2cn3c(C(=O)Nc4ccccc4Cl)c(-c4ccccc4)c4c3n2CCCC4)cc1` as the molecule, how does the XC50 read?
Answer: Its XC50 is 792 nM.

Question: For `COc1cccc(-c2ccc(C(=O)NC3CCN(Cc4ccc(C(C)(C)C)cc4)CC3)s2)c1`, which XC50 is on record?
Answer: The XC50 was 1600 nM.

Question: Which XC50 does the source give for `FC(F)(F)c1ccc(N2CCCN(Cc3cccc(-c4ccccc4CNCc4ccc5c(c4)OCO5)c3)CC2)nc1` here?
Answer: The XC50 was 1190 nM.

Question: Which XC50 does the source give for `COCCN1CCC(CNCC(C)(C)c2nc(-c3ccc(Cl)c(O)c3)c(-c3ccncc3)[nH]2)CC1` here?
Answer: Its XC50 is 753 nM.

Question: Which XC50 does the source give for `O=C(Nc1ccc(OC(F)(F)F)cc1)Nc1ccc([N+](=O)[O-])cc1` here?
Answer: Its XC50 is 878 nM.

Question: With `Cc1nc2sccn2c1C(=O)NCCc1ccccc1Cl` as the molecule, how does the XC50 read?
Answer: Its XC50 is 800 nM.

Question: How did the XC50 turn out when `c1ccc2c(c1)CN(CC1CC1)CC1(CCN(Cc3c[nH]c4cnccc34)CC1)O2` was run?
Answer: Its XC50 is 900 nM.

Question: For `O=C(Nc1ccc(-c2cccc(-c3nc4cc(C(F)(F)F)ccc4[nH]3)c2)cc1)c1ccc(=O)[nH]n1`, which XC50 is on record?
Answer: Its XC50 is 1070 nM.

Question: `O=C(NCCCNc1nc2ccccc2[nH]1)c1cccc(OC(F)(F)F)c1` was tested. Which XC50 did it give?
Answer: The XC50 was 566 nM.

Question: Which XC50 does the source give for `O=C(Nc1ccc(C(F)(F)F)cc1)N[C@H]1CCN(CCCCCNC(=O)C2CC2c2ccc(Cl)c(Cl)c2)C1` (stereo partly specified) here?
Answer: Its XC50 is 1100 nM.

Question: For `CC(NC(C)c1cccc(Cl)c1)C(=O)Nc1cc(C(F)(F)F)ccc1N1CCOCC1` (stereo unspecified), which XC50 is on record?
Answer: The XC50 was 1090 nM.

Question: Which XC50 does the source give for `CCN(CC)CCN(Cc1ccc(-c2ccc(C(F)(F)F)cc2)cc1)C(=O)Cn1c(CCc2ccc(F)c(F)c2F)nc(=O)c2ccccc21` here?
Answer: Its XC50 is 795 nM.

Question: `C=CCn1ccc2c3c(N)nc(N)nc3ccc21` was tested. Which XC50 did it give?
Answer: The XC50 was 70 nM.

Question: For `CCCCCCCOc1ccc(NC(=O)Nc2ccc(Cn3ncc(N4CCCNCC4)c(Cl)c3=O)cc2)cc1`, which XC50 is on record?
Answer: The XC50 was 923 nM.

Question: For `Cc1cc(CN2CC[C@H](NC(=O)c3ccc(Cl)c(Cl)c3)C2)ccc1OCCN1CCCC1`, which XC50 is on record?
Answer: The XC50 was 1160 nM.

Question: For `Cc1cccc2nc(-c3ccc(-c4ccc(CNCc5ccccc5)cc4)s3)[nH]c12`, which XC50 is on record?
Answer: The XC50 was 208 nM.

Question: For `O=C(NCCCCCN1CCC(c2c[nH]c3ccccc23)CC1)c1ccc(-c2ccccc2)nc1`, which XC50 is on record?
Answer: The XC50 was 1020 nM.

Question: How did the XC50 turn out when `CCOc1cc(NC(=O)Nc2ccnc3ccccc23)cc(OC)c1` was run?
Answer: The XC50 was 866 nM.

Question: With `CC(Cc1ccc(Oc2ccc(Cl)cc2)cc1)NCC(O)c1cccc(Cl)c1` (stereo unspecified) as the molecule, how does the XC50 read?
Answer: The XC50 was 739 nM.

Question: `COc1cc2nc(NCCN3CCOCC3)n3nc(-c4ccccc4)nc3c2cc1OC` was tested. Which XC50 did it give?
Answer: The XC50 was 215 nM.

Question: `Cc1ccc(C(=O)NC2C(=O)NC2c2ccccc2)c(C)c1` (stereo unspecified) was tested. Which XC50 did it give?
Answer: Its XC50 is 955 nM.

Question: `Cc1cc(Nc2cccc(C(F)(F)F)c2)nc2ccc(NC(=O)c3ccc(=O)[nH]c3)cc12` was tested. Which XC50 did it give?
Answer: Its XC50 is 487 nM.

Question: With `O=C(c1csc(-c2cccnc2)n1)N1CCc2cc3nccc(N4CCN5CCC[C@H]5C4)c3cc21` as the molecule, how does the XC50 read?
Answer: Its XC50 is 695 nM.

Question: How did the XC50 turn out when `CC1(C)N=C(N)N=C(N)N1OCCCc1ccccc1` was run?
Answer: The XC50 was 3.2 nM.

Question: Which XC50 does the source give for `O=C(/C=C/c1ccc(Cl)c(Cl)c1)N1CCC(CN2CCC(c3c[nH]c4ccccc34)C(O)C2)CC1` (stereo unspecified) here?
Answer: The XC50 was 809 nM.

Question: How did the XC50 turn out when `Oc1ccc(Cl)cc1CN1CCCC(COC(c2ccc(F)cc2)c2ccc(F)cc2)C1` (stereo unspecified) was run?
Answer: The XC50 was 677 nM.
